Assay results reported in patent US7262185B2, “Benzazepine derivative, process for producing the same, and use” (Takeda Chemical Industries Ltd., priority 2001, dated 2007).

Key:
[1] = target: T1, human CCR5 chemokine receptor (Homo sapiens, UniProt P51681); assay: Inhibition of [125I]-RANTES binding to CCR5/CHO cells (CCR5 antagonistic activity); conditions: test compound 1 μM, [125I]-RANTES as ligand, room temperature; for inhibition at 1 µM: 40 min, read-out: Binding Inhibitory Ratio (%)
T1 construct: expressed in transfected cells
T1 sequence (P51681 whole entry): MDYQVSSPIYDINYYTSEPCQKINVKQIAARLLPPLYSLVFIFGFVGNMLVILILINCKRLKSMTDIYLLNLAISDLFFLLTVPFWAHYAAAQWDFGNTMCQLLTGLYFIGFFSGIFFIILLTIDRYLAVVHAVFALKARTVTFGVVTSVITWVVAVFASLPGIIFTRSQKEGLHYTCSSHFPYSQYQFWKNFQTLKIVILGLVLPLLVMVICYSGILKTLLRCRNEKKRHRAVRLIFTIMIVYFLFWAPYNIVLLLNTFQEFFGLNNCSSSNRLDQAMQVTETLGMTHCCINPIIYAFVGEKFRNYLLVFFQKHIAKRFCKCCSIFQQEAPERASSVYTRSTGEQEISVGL
Method: Cloning of CCR5 gene from human spleen cDNA was conducted using the PCR method. Using spleen cDNA (0.5 ng) (TOYOBO CO., LTD, QUICK-Clone cDNA) as a template, PCR was performed in a DNA Thermal Cycler 480 (manufactured by Perkin Elmer) (reaction conditions: 30 cycles of 95° C. for 1 minute, 60° C. for 1 minute, and 75° C. for 5 minutes) by adding primer sets, SEQ. ID NO: 1 (sequence length: 34; sequence type: nucleic acid; chain number: single strand; topology: linear; kind of sequence: other nucleic acid synthetic. DNA) described in Experimental. Example (1) of WO 99/32100, and SEQ ID NO: 2 (sequence length: 34; sequence type: nucleic acid; chain number: single strand; topology: linear; kind of sequence: other nucleic acid synthetic. DNA) described in Experimental. Example (1) of WO 99/32100, (25 pmol, respectively), which were prepared referring to the nucleotide sequence of CCR5 gene, as reported by Samson et al. (Biochemistry 35 (11), 3362-3367 (1996)) and by using TaKaRa. EX Taq (Takara Shuzo). The resultant. PCR product was subjected to agarose gel electrophoresis to collect an approximately 1.0 kb. DNA fragment, which was subjected to an Original TA Cloning Kit (Funakoshi Co., Ltd.) to carry out cloning of CCR5 gene.
The plasmid obtained above was digested with restriction enzymes XbaI (Takara Shuzo Co., Ltd.) and BamHI (Takara Shuzo Co., Ltd.), and then subjected to agarose gel electrophoresis to collect DNA fragment of about 1.0 kb. The DNA fragment and plasmid pcDNA 3.1 (Funakoshi. Co., Ltd.) for expression in animal cells, which was previously digested with XbaI and BamHI, were mixed and ligated by DNA Ligation Kit Ver. 2 (Takara Shuzo Co., Ltd.). The resulting plasmid was subjected to transformation into. E. coli JM109 competent cells (Takara Shuzo Co., Ltd.) to obtain plasmid pCKR5.
CHO-K1 cells were cultured in a 750-ml tissue culture flask (Becton, Dickinson and Company.) using. Ham F12 medium (NIHON PHARMACEUTICAL CO., LTD.) containing 10% fetal bovine serum (Lifetech Oriental) and were collected using 0.5 g/L trypsin-0.2 g/L EDTA (Lifetech Oriental). The cells were washed with PBS (Lifetech Oriental), centrifuged (1000 rpm, 5 minutes), and suspended in PBS. The DNA was introduced into the cells using a Gene Pulser (Bio-Rad Laboratories, Inc.) under the following conditions. Namely, 8×10^6 cells and 10 μg of plasmid pCKR5 for expression of human CCR5 were placed in a cuvette having a 0.4-cm gap, and electroporation was carried out with a voltage 0.25 kV and 960 μF of capacitance. Then, the cells were transferred into Ham's. F12 medium containing 10% fetal bovine serum, and incubated for 24 hours. The cells were collected, centrifuged, and suspended in Ham' F12 medium containing 10% fetal bovine serum and Geneticin (Lifetech Oriental) at a concentration of 500 μg/ml. The suspension of cells was diluted to a concentration of 10^4 cells/ml, and was inoculated onto 96-well plate (Becton Dickinson), to obtain Geneticin-resistant strain.
Then, resulting. Geneticin-resistant strain were cultured on 96-well plate (Becton Dickinson), and CCR5-expressing cells were selected from the resistant cells. Namely, in an assay buffer, (Ham's F12 medium containing 0.5% BSA, and 20 mM HEPES (Wako Pure Chemical Ind., pH 7.2)) to which was added […][125I]-RANTES (Amersham) as a ligand, the cells were subjected to a binding reaction at room temperature for 40 minutes. Wells containing the cells were washed with ice-cooled PBS, and 50 μl/well of 1M NaOH was added and stirred. The cells to which the ligand was bound specifically, i.e., CCR5/CHO cells, were selected by measurement of radioactivity using a […].
The CCR5/CHO cells were inoculated onto 96-well microplate at a concentration of 5×10^4 cells/well, and were cultured for 24 hours. After removal of the medium by aspiration, to each well was added an assay buffer containing a test compound (1 μM), and [125I]/RANTES (Amersham) used as a ligand at a concentration of […]. […]

Row | Structure (SMILES) | melting point | other results
1 | CCCCOCCOc1ccc(-c2ccc3c(c2)C=C(C(=O)Nc2ccc([S+]([O-])Cc4cncn4CCC)cc2)CCN3CC(C)C)cc1 (stereo not drawn) [Compound 371, 7-[4-(2-butoxyethoxy)phenyl]-1-isobutyl-N-[4-[[[1-propylimidazol-5-yl]methyl]sulfinyl]phenyl]-2,3-dihydro-1-benzazepine-4-carboxamide] | – | inhibition at 1 µM [1]: 100%
2 | CCCCOCCOc1ccc(-c2ccc3c(c2)C=C(C(=O)Nc2ccc([S+]([O-])Cc4cccnc4)c(OC)c2)CCN3CC(C)C)cc1 (stereo not drawn) [Compound 240, 7-[4-(2-butoxyethoxy)phenyl]-1-isobutyl-N-[3-methoxy-4-[(3-pyridinylmethyl)sulfinyl]phenyl]-2,3-dihydro-1-benzazepine-4-carboxamide] | – | inhibition at 1 µM [1]: 97%
3 | CCCCOCCOc1ccc(-c2ccc3c(c2)C=C(C(=O)Nc2ccc([S+]([O-])Cc4cncn4CCOC)cc2)CCN3CC(C)C)cc1 (stereo not drawn) [Compound 308, 7-[4-(2-butoxyethoxy)phenyl]-1-isobutyl-N-[4-[[[1-(2-methoxyethyl)imidazol-5-yl]methyl]sulfinyl]phenyl]-2,3-dihydro-1-benzazepine-4-carboxamide] | – | inhibition at 1 µM [1]: 100%
4 | CCCCOCCOc1ccc(-c2ccc3c(c2)C=C(C(=O)Nc2ccc(SCc4nccn4CCCO)cc2)CCN3CC(C)C)cc1 [Compound 436] | – | Binding Inhibitory Ratio (%) ([1]; 40 minutes): 100%
5 | CCCCOCCOc1ccc(-c2ccc3c(c2)C=C(C(=O)Nc2ccc(C(O)c4cccc[n+]4[O-])c(C(F)(F)F)c2)CCN3CCC)cc1 (stereo not drawn) [Compound 13, 7-[4-(2-butoxyethoxy)phenyl]-N-[4-[hydroxy(1-oxidopyridin-2-yl)methyl]-3-trifluoromethylphenyl]-1-propyl-2,3-dihydro-1H-1-benzazepine-4-carboxamide] | – | inhibition at 1 µM [1]: 100%
6 | CCCCOCCOc1ccc(-c2ccc3c(c2)C=C(C(=O)Nc2ccc(CSc4nnc(C)o4)cc2)CCN3CC(C)C)cc1 [Compound 116, 7-[4-(2-butoxyethoxy)phenyl]-N-[4-(5-methyl-1,3,4-oxadiazol-2-ylthiomethyl)phenyl]-1-isobutyl-2,3-dihydro-1H-1-benzazepine-4-carboxamide] | 107 to 109 °C | –
7 | CCCCOCCOc1ccc(-c2ccc3c(c2)C=C(C(=O)Nc2ccc(C(O)c4ccc(Cl)cn4)cc2)CCN3C(=O)C(F)(F)F)cc1 (stereo not drawn) [Compound 107, 7-[4-(2-butoxyethoxy)phenyl]-N-[4-[hydroxy(5-chloropyridin-2-yl)methyl]phenyl]-1-trifluoroacetyl-2,3-dihydro-1H-1-benzazepine-4-carboxamide] | 144 to 146 °C | –
8 | CCCCOCCOc1ccc(-c2ccc3c(c2)C=C(C(=O)Nc2ccc([C@H](O)c4cccc[n+]4[O-])cc2)CCN3C(=O)C(F)(F)F)cc1 [Compound 80, 7-[4-(2-butoxyethoxy)phenyl]-N-[4-[(S)-hydroxy(1-oxidopyridin-2-yl)methyl]phenyl]-2,3-dihydro-1-trifluoroacetyl-1H-1-benzazepine-4-carboxamide] | 107 to 110 °C | –
9 | CCCCOCCOc1ccc(-c2ccc3c(c2)C=C(C(=O)Nc2ccc(C(O)c4cc(C)cc[n+]4[O-])c(OCC)c2)CCN3)cc1 (stereo not drawn) [Compound 11, 7-[4-(2-butoxyethoxy)phenyl]-N-[3-ethoxy-4-[hydroxy(4-methyl-1-oxidopyridin-2-yl)methyl]phenyl]-2,3-dihydro-1H-1-benzazepine-4-carboxamide] | 110 to 115 °C | –
10 | CCCCOCCOc1ccc(-c2ccc3c(c2)C=C(C(=O)Nc2ccc(SCCn4cnnc4)cc2)CCN3CCC)cc1 [Compound 156, 7-[4-(2-butoxyethoxy)phenyl]-N-[4-(4H-1,2,4-triazol-4-ylethylthio)phenyl]-1-propyl-2,3-dihydro-1H-benzazepine-4-carboxamide] | 114 to 115 °C | –
11 | CCCCOCCOc1ccc(-c2ccc3c(c2)C=C(C(=O)Nc2ccc(C(O)c4cccc[n+]4[O-])c(OCC(F)(F)F)c2)CCN3CC(C)C)cc1 (stereo not drawn) [Compound 23, 7-[4-(2-butoxyethoxy)phenyl]-1-isobutyl-N-[4-[hydroxy(1-oxidopyridin-2-yl)methyl]-3-(2,2,2-trifluoroethoxy)phenyl]-2,3-dihydro-1H-1-benzazepine-4-carboxamide] | 118 to 123 °C | –
12 | CCCCOCCOc1ccc(-c2ccc3c(c2)C=C(C(=O)Nc2ccc(C(O)c4c(C)ccc[n+]4[O-])cc2)CCN3C(=O)C(F)(F)F)cc1 (stereo not drawn) [Compound 100, 7-[4-(2-butoxyethoxy)phenyl]-N-[4-[hydroxy(3-methyl-1-oxidopyridin-2-yl)methyl]phenyl]-1-trifluoroacetyl-2,3-dihydro-1H-1-benzazepine-4-carboxamide] | 109 to 112 °C | –
13 | CCCCOCCOc1ccc(-c2ccc3c(c2)C=C(C(=O)Nc2ccc(C(O)c4cccc(C)[n+]4[O-])cc2)CCN3C(=O)C(F)(F)F)cc1 (stereo not drawn) [Compound 96, 7-[4-(2-butoxyethoxy)phenyl]-N-[4-[hydroxy(6-methyl-1-oxidopyridin-2-yl)methyl]phenyl]-1-trifluoroacetyl-2,3-dihydro-1H-1-benzazepine-4-carboxamide] | 170 to 173 °C | –
14 | CCCCOCCOc1ccc(-c2ccc3c(c2)C=C(C(=O)Nc2ccc(SCc4cncn4CC(N)=O)cc2)CCN3CC(C)C)cc1 [Compound 429, N-[4-[[[1-(2-amino-2-oxoethyl)-1H-imidazol-5-yl]methyl]thio]phenyl]-7-[4-(2-butoxyethoxy)phenyl]-1-isobutyl-2,3-dihydro-1H-1-benzazepine-4-carboxamide] | 152 to 154 °C | –
15 | CCCCOCCOc1ccc(-c2ccc3c(c2)C=C(C(=O)Nc2ccc(N(C)Cc4nncn4CCC)cc2)CCN3CC(C)C)cc1 [Compound 150, 7-[4-(2-butoxyethoxy)phenyl]-1-isobutyl-N-[4-[methyl(4-propyl-4H-1,2,4-triazol-3-ylmethyl)amino]phenyl]-2,3-dihydro-1H-benzazepine-4-carboxamide] | 134 to 136 °C | –
16 | CCCCOCCOc1ccc(-c2ccc3c(c2)C=C(C(=O)Nc2ccc(C(O)c4cc(C)cc[n+]4[O-])c(C(F)(F)F)c2)CCN3)cc1 (stereo not drawn) [Compound 16, 7-[4-(2-butoxyethoxy)phenyl]-N-[4-[hydroxy(4-methyl-1-oxidopyridin-2-yl)methyl]-3-trifluoromethylphenyl]-2,3-dihydro-1H-1-benzazepine-4-carboxamide] | 124 to 128 °C | –
17 | CCCCOCCOc1ccc(-c2ccc3c(c2)C=C(C(=O)Nc2ccc([S+]([O-])Cc4nncn4CCCC)cc2)CCN3CC(C)C)cc1 (stereo not drawn) [Compound 143, 7-[4-(2-butoxyethoxy)phenyl]-N-[4-(4-n-butyl-4H-1,2,4-triazol-3-ylmethylsulfinyl)phenyl]-1-isobutyl-2,3-dihydro-1H-benzazepine-4-carboxamide] | 178 to 180 °C | –
18 | CCCCOCCOc1ccc(-c2ccc3c(c2)C=C(C(=O)Nc2ccc([C@H](O)c4cccc[n+]4[O-])cc2)CCN3CC2CC2)cc1 [Compound 84, 7-[4-(2-butoxyethoxy)phenyl]-1-cyclopropylmethyl-N-[4-[(S)-hydroxy(1-oxidopyridin-2-yl)methyl]phenyl]-2,3-dihydro-1H-1-benzazepine-4-carboxamide] | 85 to 88 °C | –
